In ChEMBL document CHEMBL1134718, “N-acyloxymethyl carbamate linked prodrugs of pseudomycins are novel antifungal agents” (2001) one finds Toxicity, MIC and ED50 data, which are given here for 10 compounds.

One may read the MIC as the lowest concentration that inhibits growth of the organism.

Assay [1] deals with Mus musculus. In words: The compound was tested for antifungal activity in tail vein irritation model 7 days after a dose of 20 mg/kg administered intravenously at 0,24,48,72 h; Positive. Type of assay: functional, organism-based. More on the design: dose 20 mg/kg.
Assay [2] deals with Mus musculus. In words: The compound was tested for antifungal activity in tail vein irritation model 7 days after a dose of 20 mg/kg administered intravenously at 0,24,48,72 h; Negative. The format is functional, organism-based. Also noted: dose 20 mg/kg.
Assay [3] has as its system Cryptococcus neoformans. Nature of the assay: Minimum inhibitory concentration against Cryptococcus neoformans.
For assay [4], the system named is Candida albicans. Nature of the assay: Minimum inhibitory concentration against Candida albicans. The format is functional.
Assay [5] concerns Aspergillus fumigatus. Nature of the assay: Minimum inhibitory concentration against Aspergillus fumigatus. Type of assay: functional.
The subject of assay [6] is Mus musculus. In words: Effective dose against disseminated Candidiasis mouse model after intraperitoneal administration; Value ranges from 2.5-7.2. Type of assay: functional.
Assay [7] has as its system Mus musculus. Nature of the assay: Effective dose against disseminated Candidiasis mouse model after intraperitoneal administration. Type of assay: functional.
Assay [8] relates to Mus musculus. Nature of the assay: Effective dose against disseminated Candidiasis mouse model after intraperitoneal administration; Value ranges from 7.8-12.4. The format is functional.
Assay [9] has as its system Mus musculus. Nature of the assay: Effective dose against disseminated Candidiasis mouse model after intraperitoneal administration; Value represented as 6.4/14.1. The format is functional.

Structures are written as SMILES. ≈ marks a conversion by molar mass, not a printed value. Positions of bridges follow the written chain, without caps; N, C: chain ends. Non-standard residues stand in square brackets, D forms with d. Residues, ends and D or L forms follow the SMILES beside them. *: point of attachment. Tetradecanoyl(3R-OH) = CCCCCCCCCCC[C@@H](O)CC(=O)*; Asp(3S-OH) = N[C@H](C(=O)O)[C@H](O)C(=O)O; Thr(4-Cl) = N[C@H](C(=O)O)[C@H](O)CCl; aThr = C[C@H](O)[C@H](N)C(=O)O; dDab = NCC[C@@H](N)C(=O)O; Dab = NCC[C@H](N)C(=O)O; Dhb = C/C=C(\N)C(=O)O

As to `C/C=C1/NC(=O)[C@H]([C@H](C)O)NC(=O)[C@@H](CCNC(=O)OCOC(C)=O)NC(=O)[C@H](CCCCNC(=O)OCOC(C)=O)NC(=O)[C@H](CC(=O)O)NC(=O)[C@@H](CCNC(=O)OCOC(C)=O)NC(=O)[C@@H](NC(=O)C[C@H](O)CCCCCCCCCCC)COC(=O)[C@H]([C@H](O)CCl)NC(=O)[C@H]([C@H](O)C(=O)O)NC1=O`, the Toxicity entry in assay [1] is “Positive”.

With `C/C=C1/NC(=O)[C@H]([C@H](C)O)NC(=O)[C@@H](CCNC(=O)OCOC(=O)C(C)(C)C)NC(=O)[C@H](CCCCNC(=O)OCOC(=O)C(C)(C)C)NC(=O)[C@H](CC(=O)O)NC(=O)[C@@H](CCNC(=O)OCOC(=O)C(C)(C)C)NC(=O)[C@@H](NC(=O)C[C@H](O)CCCCCCCCCCCCC)COC(=O)[C@H]([C@H](O)CCl)NC(=O)[C@H]([C@H](O)C(=O)O)NC1=O`, the Toxicity entry in [2] was “Negative”.

`C/C=C1\NC(=O)[C@H]([C@H](C)O)NC(=O)[C@H](CCN)NC(=O)[C@H](CCCCN)NC(=O)[C@H](CC(=O)O)NC(=O)[C@@H](CCN)NC(=O)[C@@H](NC(=O)C[C@H](O)CCCCCCCCCCC)COC(=O)[C@H]([C@H](O)CCl)NC(=O)[C@H]([C@H](O)C(=O)O)NC1=O` [PSEUDOMYCIN B] ({Tetradecanoyl(3R-OH)}-S[dDab]DK[Dab][aThr][Dhb][Asp(3S-OH)][Thr(4-Cl)]; ester 1-C): the values for the MIC in [3], in assay [4] and in assay [5] were 0.039 µg/mL (≈ 0.0323 µM), 0.625 µg/mL (≈ 0.517 µM) and 20 µg/mL (≈ 16.6 µM), respectively. In [1], the Toxicity entry is “Positive”. This compound came in with an ED50 in [6] of 2.5 mg 4kg-1.

Take `C/C=C1/NC(=O)[C@H]([C@H](C)O)NC(=O)[C@@H](CCNC(=O)OC(C)OC(C)=O)NC(=O)[C@H](CCCCNC(=O)OC(C)OC(C)=O)NC(=O)[C@H](CC(=O)O)NC(=O)[C@@H](CCNC(=O)OC(C)OC(C)=O)NC(=O)[C@@H](NC(=O)C[C@H](O)CCCCCCCCCCC)COC(=O)[C@H]([C@H](O)CCl)NC(=O)[C@H]([C@H](O)C(=O)O)NC1=O` (some centres undefined): in [2], the Toxicity entry was “Negative”. Also, the ED50 in assay [7] is on record as greater than 20 mg 4kg-1.

Regarding `C/C=C1/NC(=O)[C@H]([C@H](C)O)NC(=O)[C@@H](CCN)NC(=O)[C@H](CCCCN)NC(=O)[C@H](CC(=O)O)NC(=O)[C@@H](CCN)NC(=O)[C@@H](NC(=O)C[C@H](O)CCCCCCCCCCCCC)COC(=O)[C@H]([C@H](O)CCl)NC(=O)[C@H]([C@H](O)C(=O)O)NC1=O`, in [1], the Toxicity result was “Positive”.

For the compound `C/C=C1/NC(=O)[C@H]([C@H](C)O)NC(=O)[C@H](CCNC(=O)OCOC(C)=O)NC(=O)[C@H](CCCCNC(=O)OCOC(C)=O)NC(=O)[C@H](CC(=O)O)NC(=O)[C@@H](CCNC(=O)OCOC(C)=O)NC(=O)[C@@H](NC(=O)C[C@H](O)CCCCCCCCCCC)COC(=O)[C@H]([C@H](O)CCl)NC(=O)[C@H]([C@H](O)C(=O)O)NC1=O`, the ED50 in assay [7] is recorded as 13 mg 4kg-1.

As for `C/C=C1/NC(=O)[C@H]([C@H](C)O)NC(=O)[C@H](CCNC(=O)OCOC(=O)C(C)(C)C)NC(=O)[C@H](CCCCNC(=O)OCOC(=O)C(C)(C)C)NC(=O)[C@H](CC(=O)O)NC(=O)[C@@H](CCNC(=O)OCOC(=O)C(C)(C)C)NC(=O)[C@@H](NC(=O)C[C@H](O)CCCCCCCCCCCCC)COC(=O)[C@H]([C@H](O)CCl)NC(=O)[C@H]([C@H](O)C(=O)O)NC1=O`, the MIC in [3], in assay [4] and in assay [5] was greater than 20 µg/mL throughout. In assay [7], this compound showed an ED50 of 9 mg 4kg-1.

Regarding `C/C=C1/NC(=O)[C@H]([C@H](C)O)NC(=O)[C@H](CCN)NC(=O)[C@H](CCCCN)NC(=O)[C@H](CC(=O)O)NC(=O)[C@@H](CCN)NC(=O)[C@@H](NC(=O)C[C@H](O)CCCCCCCCCCCCC)COC(=O)[C@H]([C@H](O)CCl)NC(=O)[C@H]([C@H](O)C(=O)O)NC1=O` [PSEUDOMYCIN C], the MIC in assay [3] is less than 0.02 µg/mL; in [4] it was 0.312 µg/mL (≈ 0.252 µM); in assay [5], 10 µg/mL (≈ 8.09 µM). In addition, in [8], the ED50 turned out to be 7.8 mg 4kg-1.

As for `C/C=C1/NC(=O)[C@H]([C@H](C)O)NC(=O)[C@@H](CCNC(=O)OCOC(=O)C(C)(C)C)NC(=O)[C@H](CCCCNC(=O)OCOC(=O)C(C)(C)C)NC(=O)[C@H](CC(=O)O)NC(=O)[C@@H](CCNC(=O)OCOC(=O)C(C)(C)C)NC(=O)[C@@H](NC(=O)C[C@H](O)CCCCCCCCCCC)COC(=O)[C@H]([C@H](O)CCl)NC(=O)[C@H]([C@H](O)C(=O)O)NC1=O`, the Toxicity entry in assay [2] was “Negative”.

For the compound `C/C=C1/NC(=O)[C@H]([C@H](C)O)NC(=O)[C@H](CCNC(=O)OCOC(=O)C(C)(C)C)NC(=O)[C@H](CCCCNC(=O)OCOC(=O)C(C)(C)C)NC(=O)[C@H](CC(=O)O)NC(=O)[C@@H](CCNC(=O)OCOC(=O)C(C)(C)C)NC(=O)[C@@H](NC(=O)C[C@H](O)CCCCCCCCCCC)COC(=O)[C@H]([C@H](O)CCl)NC(=O)[C@H]([C@H](O)C(=O)O)NC1=O`, the MIC in [3], in assay [4] and in assay [5] was greater than 20 µg/mL each time. Moreover, the ED50 in assay [9] is on record as 6.4 mg 4kg-1.
